Data set [1] has as its system Rabbit platelet aggregation induced by PAF. Kind of data set: Rabbit platelet aggregation inhibitory activity (PAF-induced). The class given is cell-based, rabbit (New Zealand white). To be noted: Oryctolagus cuniculus, read-out: Rabbit Platelet Aggregation Inhibitory activity IC50. As to the method: To 0.9 volume of blood collected from jugular vein of a New Zealand white male rabbit weighing from 2.5 to 3.5 kg was added 0.1 volume of 3.8% aqueous sodium citrate, and the mixture was centrifuged at 110 xg for 15 minutes to give PRP ([…]). Assay of platelet aggregation induced by PAF was effected using 4 channels aggregometer (Manufacturer: Nicoh Bioscience Co.) according to Bohn et al, Turbidimetry [J. Physiology, Vol. 168, p.178, 1963]. […] The final concentration of PAF in the reaction mixture was adjusted to 10^-10 M.

Data set [2] relates to mouse death due to shock induced by PAF. Kind of data set: Activity to mouse death due to shock induced by PAF. The data set is classed as in vivo. The conditions noted are these: male ICR mouse; oral 1 hour prior to i.v. 100 μg/kg PAF; survival at 24 hours. As to the method:
Test was effected according to Young et al. method, Prostaglandins, Vol. 30, p.545, 1985. Lethal test was effected by treating starved male ICR mouse weighing from 25 g to 30 g with PAF without anesthesia. Test Compound was orally administered 1 hour prior to tail intravenous administration of 100 μg/kg of PAF. Survival rate of the test animal was examined 24 hours after intravenous administration of PAF.

Data set [3] relates to contraction of the respiratory tract due to PAF. Kind of data set: Activity to contraction of the respiratory tract of guinea pig due to PAF. The conditions noted are these: Cavia porcellus, read-out: Activity to Contraction of the Respiratory Tract of Guinea Pig due to PAF ED50. The class given is in vivo, guinea pig (Hartley). As to the method: Hartley male guinea pigs weighing from 350 g to 500 g were anesthetized by intraperitoneal administration of 50 mg/kg of sodium pentobarbital. Contraction of the respiratory tract was measured by inserting a cannula into trachea and measuring under artificial ventilation according to Conzet et al, Arch. […] 71. Test compound was orally administered 1 hour prior to intravenous administration of 0.3 μg/kg of PAF.

A short description of data set [4]: Acute toxicity. The conditions noted are these: in vivo; male and female SD (CD) rat; oral, 0.5% aqueous CMC-Na suspension; observed 14 days.
The subject of data set [5] is thromboxane synthetase enzyme. To be noted: Kokai Sho 63-316778, Table 1; cited from earlier work.
The conditions of data set [6]: Kokai Sho 60-132928, Table 2; cited from earlier work.
[7] abbreviates: rabbit PRP, PAF final concentration 10^-10 M.
Setting [8] is: Hartley male guinea pig, oral 1 hour prior to i.v. 0.3 μg/kg PAF.

For orientation: IC50 means the concentration at which inhibition is half-maximal. In general, ED50 refers to the dose at which the effect has come halfway, by size or by number of responders. For orientation: LD50 means the dose expected to kill half of the subjects tested. Lower therefore signals greater toxicity.

Where two headings read alike, the source gives them in different places.

With `O=c1c2cc(Oc3ccc(Cl)cc3)ccc2ncn1Cc1cccnc1` [compound 131, 6-(4-chlorophenoxy)-3-(3-pyridylmethyl)-4 (3H)-quinazolinone], the IC50 in data set [1] (setting [7]) amounted to 31 nM.
For the compound `O=C(c1ccc(Cl)cc1)c1ccc2c(c1)C(=O)N(Cc1cccnc1)C2=O` [compound 45, 5-(4-chlorobenzoyl)-2-(3-pyridylmethyl)-1H-isoindole-1,3 (2H)-dione], in data set [1] (setting [7]), the IC50 was 19 nM. In addition, in data set [2], the ED50 stood at 0.6 mg/kg.
`N#Cc1ccc(N(c2ccc(C#N)cc2)c2ccc3c(c2)C(=O)N(Cc2cccnc2)C3=O)cc1` [compound 63, 5-[N,N-bis (4-cyanophenyl)amino]-2-(3-pyridylmethyl)-1H-isoindole-1,3 (2H)-dione]: the IC50 in data set [1] (setting [7]) came to 1.7 nM. The 50% effective dose (ED50) turned out to be 0.007 mg/kg in data set [2] and 0.006 mg/kg in data set [3] (setting [8]). Moreover, the LD50 at 336 h in data set [4] is over 2000 mg/kg.
On to `O=c1c2cc(Cl)ccc2nnn1CCCn1ccnc1` [formula (A)], for which the “thromboxane synthetase enzyme inhibition” value in data set [5] is listed as “inhibits thromboxane synthetase enzyme”.
Regarding `O=c1c2cc(Oc3ccc(Cl)cc3)ccc2ccn1Cc1cccnc1` [compound 128, 7-(4-chlorophenoxy)-2-(3-pyridylmethyl)-1 (2H)-isoquinolinone], the IC50 in data set [1] (setting [7]) was found to be 18 nM.
Turning to `O=C1c2ccc(N(c3ccc(Cl)cc3)c3ccc(Cl)cc3)cc2C(=O)N1Cc1cccnc1` [compound 60, 5-[N,N-bis (4-chlorophenyl)amino]-2-(3-pyridylmethyl)-1H-isoindole-1,3(2H)-dione], the IC50 in data set [1] (setting [7]) is 2.6 nM. For the same compound, the 50% effective dose (ED50) in data set [2] and in data set [3] (setting [8]) was 0.019 mg/kg each time. The compound further yielded an LD50 at 336 h in data set [4] of over 2000 mg/kg.
On to `O=C1c2cccc(Oc3ccc(Cl)cc3)c2C(=O)N1Cc1cccnc1` [compound 72, 4-(4-chlorophenoxy)-2-(3-pyridylmethyl)-1H-isoindole-1,3 (2H)-dione], for which, in data set [1] (setting [7]), the IC50 amounted to 32 nM. Further, the 50% effect level in data set [2] (ED50) was put at a dose of 0.4 mg/kg.
Regarding `O=C1c2cc(Oc3ccc(Cl)cc3)ccc2CCN1Cc1cccnc1` [compound 84, 7-(4-chlorophenoxy)-3,4-dihydro-2-(3-pyridylmethyl)-1 (2H)-isoquinolinone], the IC50 in data set [1] (setting [7]) was 10 nM.
With `Cc1nnc2n1-c1sc(CCC(=O)N3CCOCC3)cc1C(c1ccccc1Cl)=NC2` [WEB2086, reference compound], in data set [1], the IC50 is 40 nM. Moreover, the ED50 in data set [2] is 1 mg/kg; in data set [3] (po, 1 h), 0.15 mg/kg.
`O=c1c2cc(Oc3ccc(Cl)cc3)ccc2nnn1Cc1cccnc1` [compound 2, 6-(4-chlorophenoxy)-3-(3-pyridylmethyl)-1,2,3-benzotriazin-4 (3H)-one]: the IC50 in data set [1] (setting [7]) is 26 nM. The ED50 came to 2.1 mg/kg in data set [2] and 0.15 mg/kg in data set [3] (setting [8]). The compound also returned an LD50 at 336 h in data set [4] of over 2000 mg/kg.
The compound `O=c1c2cc(Oc3ccc(Cl)cc3)ccc2ccn1-c1cccnc1` [compound 130, 7-(4-chlorophenoxy)-2-(3-pyridyl)-1 (2H)-isoquinolinone] yielded an ED50 in data set [2] of 0.018 mg/kg.
As to `O=C1c2ccc(Oc3ccc(Cl)cc3)cc2C(=O)N1Cc1cccnc1` [compound 25, 5-(4-chlorophenoxy)-2-(3-pyridylmethyl)-1H-isoindole-1,3 (2H)-dione], in data set [1] (setting [7]), the IC50 is 10 nM. Besides, the ED50 in data set [2] was found to be 1.3 mg/kg; in data set [3] (setting [8]), 0.14 mg/kg. The LD50 at 336 h in data set [4] is over 2000 mg/kg.
In the case of `O=C1c2ccc(-c3cccc4ccccc34)cc2C(=O)N1Cc1cccnc1` [compound 50, 5-(1-naphthyl)-2-(3-pyridylmethyl)-1H-isoindole-1,3 (2H)-dione], the IC50 in data set [1] (setting [7]) was found to be 24 nM. This compound also registered an ED50 in data set [2] of 0.32 mg/kg.
Turning to `O=C1c2cc(Oc3ccc(F)cc3)ccc2CN1Cc1cccnc1` [compound 125, 2,3-dihydro-6-(4-fluorophenoxy)-2-(3-pyridylmethyl)-1H-isoindole-1-one], in data set [1] (setting [7]), the IC50 was 36 nM.
Consider `O=C1c2ccc(C(c3ccc(Cl)cc3)c3ccc(Cl)cc3)cc2C(=O)N1Cc1cccnc1` [compound 68, 5-[bis (4-chlorophenyl)methyl]-2-(3-pyridylmethyl)-1H-isoindole-1,3 (2H)-dione], for which the IC50 in data set [1] (setting [7]) is 1.8 nM.
In the case of `CN1C(=O)c2ccc(Oc3ccc(C(F)(F)F)cc3Cl)cc2C1=O`, in data set [6], the herbicidal activity result was “shows herbicidal activity”.

The values are drawn from patent US5304556A, “Benza-triazinone derivatives” (Mitsubishi Kasei Corporation, priority 1991, dated 1994).
